Data published in patent US20230158091A1, “C[…] CARRIER” (New York Medical College, priority 2020, published 2023).
Entries after “also recorded” stand apart in the source; their conditions may differ. Read-outs that look alike come from different tables or passages of the source.

Columns and labels:
[1] = tested on: rats with spinal cord contusion (SCI); assay: Spinal cord contusion (SCI), lesion and locomotor recovery; type: in vivo, rat
Text: FIG. 6 depicts schematic overview perspectives of an internal CBD absorbable medical carrier applied to the internal wound in the rat with systemic supplementation with a spinal cord contusion (SCI).

[2] = tested on: rats with cortical contusion injury (TBI); assay: Novel Object Recognition test after TBI; type: in vivo, rat
Protocol: (§1) Cortical Contusion Injury. Adult male and female Sprague-Dawley and Wistar rats (225-350 gm) received a moderately severe cortical impact injury under anesthesia with a controlled weight drop apparatus mounted on a stereotactic apparatus. Anesthesia was induced with ketamine/xylazine (60/6 mg/kg i.p.). A midline incision was performed to expose the skull. The dura was exposed with a 4.4-mm craniotomy centered at 1.4-mm posterior and 2.4-mm lateral to the bregma for placement of the 4-mm diameter foot-plate of the contusion apparatus. Contusion injury force of 600 g/cm was produced with a 20-g weight and dropping distance of 30-cm. The 20-g weight was released into a vertical guided tube that strikes the foot plate positioned at the end of the tube which is in contact with the dura. To avoid brain penetration, the foot-plate was prevented by a guide from moving greater than 2.5-mm into the dura.
(§2) Drug Administration. Rats in the TBI+CBD group received the gelfoam sponge infused with CBD (20.0 mg/ml) directly to the open contusion site overlying the dura within 2 min after the weight was removed from the apparatus. CBD was also administered systemically 10 min following surgery at 40 mg/kg followed by 20 mg/kg for all other injection days. TBI rats received gelfoam with coconut or olive oil directly onto the open contusion site overlying the dura following their respective surgical contusions. TBI rats also received vehicle, either coconut oil, olive oil, or PBS systemically at equal volumes that were administered to CBD treated animals according to weight (0.1-0.4 cc).
The Novel Object Recognition test was utilized to evaluate the short-term and working memory of the TBI+CBD group compared to control TBI levels at 27-29 days and naive untreated young rats. Following habituation, animals could explore an open field with two objects for 3 consecutive days by introducing two same objects on day 1 and adding a novel object on days 2 and 3 without visual cues.

[3] = cited from earlier work
[4] = tested on: rats with cortical contusion injury (TBI); assay: Spontaneous alternating T-maze after TBI; type: in vivo, rat
Protocol: as §1, §2
The spontaneous alternating T-maze was utilized at 3 and 28 days following TBI or TBI+CBD in order to assess spatial sense, memory and cognitive ability. Naïve untreated rats spontaneously alternated between left and right arms. There was a tendency of asymmetry to the left arm, but the number of entries was not great enough to exclude the possibility that the difference was due to random sampling variability (L: 6.3±1.7 vs. R: 4.7±0.52, N=10, two-tailed t=2.1, df=18, p=0.05). At 3 days following TBI to the left hemisphere, arm entry was impaired.

[5] = tested on: rats with cortical contusion injury (TBI); assay: Cortical contusion injury, hippocampal cell counts after H&E staining; type: in vivo, rat
Protocol: as §1, §2
In the contralateral CAL injured cells were intermingled among healthy appearing round cell bodies. […] In contrast to the TBI+vehicle group, the ipsilateral hippocampus was predominantly intact in all CBD treated animals but with disproportional levels of injured cells throughout the subfields. There were varied numbers of pyknotic, acidophilic, irregular shaped CA1 and CA3a (not illustrated) neurons.
Since 9 of 13 animals from the TBI+vehicle group had spared ipsilateral hippocampal tissue, counting of injured vs. healthy appearing cells of the CA1 subregion was carried out in a subset of animals from the TBI+vehicle group and compared with the CBD treated group to estimate whether injury on one side is related to the amount of injury on the other side. Measurements of the CA1 area and total volumetric measurements of the ipsilateral hemisphere were used for correlating ipsilateral injury with ipsilateral and contralateral hippocampal cellular injury.

[6] = tested on: rats with cortical contusion injury (TBI); assay: Beam balance test (vestibulomotor function) after TBI; type: in vivo, rat; settings: compared to TBI untreated rats; day 14 through day 28
Protocol: as §1
Drug Administration. Rats in the TBI+CBD group received the gelfoam sponge infused with CBD (20.0 mg/ml) directly to the open contusion site overlying the dura within 2 min after the weight was removed from the apparatus. CBD was also administered systemically 10 min following surgery at 40 mg/kg followed by 20 mg/kg for all other injection days. […]
Vestibulomotor function was determined with the beam balance test in the TBI untreated and TBI+CBD treated rats. […]

[7] = tested on: rats with cortical contusion injury (TBI); assay: Cortical contusion injury (weight drop TBI), lesion histology; type: in vivo, rat
Protocol: as §1, §2
After direct delivery of the CBD internal gelatinized matrix, dental acrylic was used to close the wound. Animals became active 30-40 min following surgery.
FIG. 5 depicts schematic overview perspectives of an internal CBD absorbable medical carrier applied to the internal brain wound in the rat with systemic supplementation.

[8] = comparison of both hemispheres, p=0.037

## C=C(C)[C@@H]1CCC(C)=C[C@H]1c1c(O)cc(CCCCC)cc1O [CBD, cannabidiol]
[1]; aged female rats, weeks 5 and 6 with continued CBD treatment
  locomotor recovery after spinal cord contusion (in words): significant locomotor improvement
[1]; internal CBD carrier plus 1 week of daily CBD injections and 3 weeks of intermittent CBD treatment
  spinal cord lesion area / tissue preservation (Luxol Fast Blue, in words): reduced volumetric lesion area
[2]; 27-29 days post-TBI
  overall mobility: greater than TBI rats and similar to naïve untreated controls
[2]; 27-29 days post-TBI, p=0.032
  speed of travel: greater speed than TBI rats
[2]; averaged from days 2+3 of testing, 27-29 days post-TBI, p=0.03
  distance travelled: greater distance than TBI+vehicle treated rats
[2]; compared to TBI rats, not significantly different from naïve rats
  number of episodes of interacting with old and novel objects: much greater
[2]; compared to TBI, not significantly different from naïve rats
  time spent with the novel object: much greater
[3]; ingestion
  absorbed in the body: 5-20%
[3]; vaping or smoking
  absorbed in the body: 30-60%
[4]; 3 or 28 days post-injury, not significantly different from TBI+vehicle
  time to choose right or left: 13 to 33 s
[4]; 3 days following TBI to the left hemisphere
  asymmetry of arm entry to the left: highly significant
[4]; 28 days after TBI, TBI 17.5±11.8%
  percent alternating in T-maze: 52.5±8.53%
[4]; after 28 days
  spontaneous alternation (in words): significant increase in percent alternating
[5]; CBD local and peripheral delivery system
  hippocampal injury at the cellular level (H&E, in words): partially attenuated
[5]; TBI+vehicle 30.4 4.17, p=0.002
  contralateral hippocampus hilus irregular stained/injured cells: 7.63±1.86
[5]; TBI+vehicle 53.3±10.9, p=0.045
  contralateral hippocampus CA1 irregular stained/injured cells: 14.22±2.2
[5]; [8]
  number of injured CA1 neurons, contralateral side (comparison of both hemispheres): 14.21±2.29
  number of injured CA1 neurons, ipsilateral side: 172.75±70
[5]; relative to TBI+vehicle
  percent of CA1 contralateral injured cell counts relative to TBI+vehicle: 26.7±4.37%
[5]; versus TBI+vehicle
  ratio of ipsilateral injured CA1 neurons to healthy appearing CA1 pyramidal neurons: unchanged
[6]
  beam balance performance / vestibulomotor function (in words): improved balance and locomotor function within a few days; also recorded: significant improvement
[7]; Bregma AP 1.2 to −6.8, local sponge plus systemic CBD, p=0.0008
  area affected, normalized to TBI+vehicle treated group: 34.04±6.38%
[7]; approximated from 12 levels, 4 weeks after TBI, gelfoam sponge with CBD 20.0 mg/ml at contusion site plus systemic CBD 40 then 20 mg/kg, TBI+vehicle 69.85±7.2
  ipsilateral cortical/hippocampal lesion volume: 21.4±3.5 mm^3
[7]; compared to contusion alone / TBI+vehicle
  lesion size after brain contusion (in words): reduced ipsilateral lesion size; also recorded: decreased the size of the ipsilateral lesion
[7]; local sponge plus systemic CBD, TBI control 6.586±0.2, p=0.008
  total anterior to posterior lesion measurement: 5.867±0.17 mm
[7]; local sponge plus systemic CBD, comparison value 1.22±0.35, p=0.347
  lesion area at posterior levels (Bregma AP: −6.8 or further): 0.92±0.17 mm^2
